# Tested on: NCI-H1876 tumor spheroid viability
# Test: Anticancer human tumor NCI-H1876 cell line growth inhibition;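 note: spheroids exposed to compounds for seven days before the viability read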;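 for viability, T/C: percent of DMSO vehicle control viability so 100% = vehicle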
# Details: spheroids with HUVEC and MSC; for IC50: curve of first compound; for viability, T/C: stronger effect = lower value
# How it was run: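 Single agents and combinations were tested on spheroids built from tumor cells plus HUVEC and hMSC, at half-log dilutions starting at or near clinical Cmax, else 10 microM; final DMSO 0.25% (v/v).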
# [1] = second compound 0.003 µM, first compound 0.0316 µM
# [2] = second compound 0.003 µM, first compound 0.1 µM
# [3] = second compound 0.003 µM, first compound 0.316 µM
# [4] = second compound 0.003 µM, first compound 1 µM
# [5] = second compound 0.003 µM, first compound 3.16 µM
# [6] = second compound 0.003 µM, first compound 10 µM
smiles,measurement,setting,value
Cc1sc2c(c1C)C(c1ccc(Cl)cc1)=NC(CC(=O)Nc1ccc(O)cc1)c1nnc(C)n1-2 (stereo not given) + CC[C@@]1(O)C(=O)OCc2c1cc1n(c2=O)Cc2cc3c(CN(C)C)c(O)ccc3nc2-1,IC50,second compound 0.003 µM,31.8 nM
same,IC50,second compound 0.00949 µM,< 9.49 nM
same,IC50,second compound 0.03 µM,< 9.49 nM
same,IC50,second compound 0.0949 µM,< 9.49 nM
same,IC50,second compound 0.3 µM,< 9.49 nM
same,"viability, T/C","second compound 0.003 µM, first compound 0.00949 µM",70.7%
same,"viability, T/C","second compound 0.003 µM, first compound 0.03 µM",52.3%
same,"viability, T/C","second compound 0.003 µM, first compound 0.0949 µM",25.6%
same,"viability, T/C","second compound 0.003 µM, first compound 0.3 µM",15.8%
same,"viability, T/C","second compound 0.003 µM, first compound 0.949 µM",8.93%
same,"viability, T/C","second compound 0.003 µM, first compound 3 µM",5.64%
same,"viability, T/C","second compound 0.00949 µM, first compound 0.00949 µM",30.6%
same,"viability, T/C","second compound 0.00949 µM, first compound 0.03 µM",46.8%
same,"viability, T/C","second compound 0.00949 µM, first compound 0.0949 µM",16.6%
same,"viability, T/C","second compound 0.00949 µM, first compound 0.3 µM",12.2%
same,"viability, T/C","second compound 0.00949 µM, first compound 0.949 µM",7.36%
same,"viability, T/C","second compound 0.00949 µM, first compound 3 µM",5.57%
same,"viability, T/C","second compound 0.03 µM, first compound 0.00949 µM",12.2%
same,"viability, T/C","second compound 0.03 µM, first compound 0.03 µM",30%
same,"viability, T/C","second compound 0.03 µM, first compound 0.0949 µM",12.2%
same,"viability, T/C","second compound 0.03 µM, first compound 0.3 µM",10.8%
same,"viability, T/C","second compound 0.03 µM, first compound 0.949 µM",5.27%
same,"viability, T/C","second compound 0.03 µM, first compound 3 µM",4.32%
same,"viability, T/C","second compound 0.0949 µM, first compound 0.00949 µM",7.77%
same,"viability, T/C","second compound 0.0949 µM, first compound 0.03 µM",8.11%
same,"viability, T/C","second compound 0.0949 µM, first compound 0.0949 µM",8.71%
same,"viability, T/C","second compound 0.0949 µM, first compound 0.3 µM",7.87%
same,"viability, T/C","second compound 0.0949 µM, first compound 0.949 µM",5.5%
same,"viability, T/C","second compound 0.0949 µM, first compound 3 µM",4%
same,"viability, T/C","second compound 0.3 µM, first compound 0.00949 µM",3.46%
same,"viability, T/C","second compound 0.3 µM, first compound 0.03 µM",3.69%
same,"viability, T/C","second compound 0.3 µM, first compound 0.0949 µM",3.67%
same,"viability, T/C","second compound 0.3 µM, first compound 0.3 µM",3.02%
same,"viability, T/C","second compound 0.3 µM, first compound 0.949 µM",2.65%
same,"viability, T/C","second compound 0.3 µM, first compound 3 µM",1.56%
COc1ccc([C@@H](O)c2cc(-c3ncnc4cc(N5CCOCC5)ccc34)c(F)cc2Cl)nn1 + COc1cc2c(cc1O)CCNC21CSC2c3c(OC(C)=O)c(C)c4c(c3C(COC1=O)N1C(O)C3Cc5cc(C)c(OC)c(O)c5C(C21)N3C)OCO4,IC50,second compound 30 pM,2540 nM
same,IC50,second compound 94.9 pM,778 nM
same,IC50,second compound 0.0003 µM,< 31.6 nM
same,IC50,second compound 0.000949 µM,< 31.6 nM
same,IC50,second compound 0.003 µM,< 31.6 nM
same,"viability, T/C","second compound 30 pM, first compound 0.0316 µM",104%
same,"viability, T/C","second compound 30 pM, first compound 0.1 µM",102%
same,"viability, T/C","second compound 30 pM, first compound 0.316 µM",99.5%
same,"viability, T/C","second compound 30 pM, first compound 1 µM",92%
same,"viability, T/C","second compound 30 pM, first compound 3.16 µM",40.2%
same,"viability, T/C","second compound 30 pM, first compound 10 µM",8.98%
same,"viability, T/C","second compound 94.9 pM, first compound 0.0316 µM",93%
same,"viability, T/C","second compound 94.9 pM, first compound 0.1 µM",87.6%
same,"viability, T/C","second compound 94.9 pM, first compound 0.316 µM",78%
same,"viability, T/C","second compound 94.9 pM, first compound 1 µM",41.5%
same,"viability, T/C","second compound 94.9 pM, first compound 3.16 µM",16.1%
same,"viability, T/C","second compound 94.9 pM, first compound 10 µM",5.87%
same,"viability, T/C","second compound 0.0003 µM, first compound 0.0316 µM",20.7%
same,"viability, T/C","second compound 0.0003 µM, first compound 0.1 µM",20.1%
same,"viability, T/C","second compound 0.0003 µM, first compound 0.316 µM",15.1%
same,"viability, T/C","second compound 0.0003 µM, first compound 1 µM",7.3%
same,"viability, T/C","second compound 0.0003 µM, first compound 3.16 µM",2.15%
same,"viability, T/C","second compound 0.0003 µM, first compound 10 µM",2.31%
same,"viability, T/C","second compound 0.000949 µM, first compound 0.0316 µM",2.44%
same,"viability, T/C","second compound 0.000949 µM, first compound 0.1 µM",2.76%
same,"viability, T/C","second compound 0.000949 µM, first compound 0.316 µM",3.13%
same,"viability, T/C","second compound 0.000949 µM, first compound 1 µM",1.08%
same,"viability, T/C","second compound 0.000949 µM, first compound 3.16 µM",0.81%
same,"viability, T/C","second compound 0.000949 µM, first compound 10 µM",0.98%
same,"viability, T/C",[1],0.93%
same,"viability, T/C",[2],0.67%
same,"viability, T/C",[3],0.53%
same,"viability, T/C",[4],0.63%
same,"viability, T/C",[5],0.36%
same,"viability, T/C",[6],0.33%
[2H]c1nc(C)nc([2H])c1-c1cc(NC[C@@H](C)c2cccc3c(C(=O)NC)ccnc23)ncn1 + CC[C@@]1(O)C(=O)OCc2c1cc1n(c2=O)Cc2cc3c(CN(C)C)c(O)ccc3nc2-1,IC50,second compound 0.003 µM,> 10000 nM
same,IC50,second compound 0.00949 µM,< 31.6 nM
same,IC50,second compound 0.03 µM,< 31.6 nM
same,IC50,second compound 0.0949 µM,< 31.6 nM
same,IC50,second compound 0.3 µM,< 31.6 nM
same,"viability, T/C",[1],93.3%
same,"viability, T/C",[2],89.6%
same,"viability, T/C",[3],93.9%
same,"viability, T/C",[4],87.1%
same,"viability, T/C",[5],85.1%
same,"viability, T/C",[6],78.5%
same,"viability, T/C","second compound 0.00949 µM, first compound 0.0316 µM",25.2%
same,"viability, T/C","second compound 0.00949 µM, first compound 0.1 µM",22.2%
same,"viability, T/C","second compound 0.00949 µM, first compound 0.316 µM",24%
same,"viability, T/C","second compound 0.00949 µM, first compound 1 µM",21.4%
same,"viability, T/C","second compound 0.00949 µM, first compound 3.16 µM",19.7%
same,"viability, T/C","second compound 0.00949 µM, first compound 10 µM",17.1%
same,"viability, T/C","second compound 0.03 µM, first compound 0.0316 µM",3.65%
same,"viability, T/C","second compound 0.03 µM, first compound 0.1 µM",4.05%
same,"viability, T/C","second compound 0.03 µM, first compound 0.316 µM",3.87%
same,"viability, T/C","second compound 0.03 µM, first compound 1 µM",4.16%
same,"viability, T/C","second compound 0.03 µM, first compound 3.16 µM",4.24%
same,"viability, T/C","second compound 0.03 µM, first compound 10 µM",4.06%
same,"viability, T/C","second compound 0.0949 µM, first compound 0.0316 µM",2.96%
same,"viability, T/C","second compound 0.0949 µM, first compound 0.1 µM",2.98%
same,"viability, T/C","second compound 0.0949 µM, first compound 0.316 µM",2.95%
same,"viability, T/C","second compound 0.0949 µM, first compound 1 µM",3.01%
same,"viability, T/C","second compound 0.0949 µM, first compound 3.16 µM",2.71%
same,"viability, T/C","second compound 0.0949 µM, first compound 10 µM",3.38%
same,"viability, T/C","second compound 0.3 µM, first compound 0.0316 µM",2.42%
same,"viability, T/C","second compound 0.3 µM, first compound 0.1 µM",2.48%
same,"viability, T/C","second compound 0.3 µM, first compound 0.316 µM",2.48%
same,"viability, T/C","second compound 0.3 µM, first compound 1 µM",2.74%
same,"viability, T/C","second compound 0.3 µM, first compound 3.16 µM",2.32%
same,"viability, T/C","second compound 0.3 µM, first compound 10 µM",2.21%

# — PubChem BioAssay AID1845207 (Molecular Pharmacology Branch, DTP, NCI, 2023)
